Earlier results, collected in patent US20240197589A1, “ORAL CARE COMPOSITIONS COMPRISING GERANYLGERANIOL AND METHODS OF USE THEREOF” (AMERICAN RIVER NUTRITION, LLC, priority 2022, published 2024).

Legend:
[1] = tested on: Porphyromonas gingivalis
[2] = in combination with amoxicillin, 200 mg two times per day for 5 days, following third molar removal
[3] = tested on: Streptococcus mutans
[4] = animals treated with both bisphosphonates and GG
[5] = tested on: Mycobacterium tuberculosis; settings: M. tuberculosis, at 6.25 ug/ml
[6] = tested on: Staphylococcus aureus; settings: S. aureus

Compound | dilution exerting antibacterial effects against Porphyromonas gingivalis [1] | study subjects with reduced swelling and pain [2] | dilution effective against Streptococcus mutans [3] | improved gum and extracted socket healing [4] | inhibition of the bacterium [5] | concentration for optimum bactericidal effect [6] | decrease of viable bacterial cell count ([6]; 0.15-1.25 ug/ml, within two hours)
Bromelain | 4.15 mg/mL | up to 70% | 2 mg/mL | – | – | – | –
CC(C)=CCC/C(C)=C/CC/C(C)=C/CC/C(C)=C/CO [GG, geranylgeraniol] | – | – | – | 45-67% | 96% | 0.15 to 1.25 µg/mL | decreased viable bacterial cell count by a factor of two
